{"source": "ChEMBL document CHEMBL5247610", "about": "“Discovery of 5-((4-(pyridin-3-yl)pyrimidin-2-yl)amino)-1H-indole-2-carboxamide derivatives as novel anti-cancer agents targeting Nur77” (Eur J Med Chem, 2022)", "key": {"[1]": {"tested_on": "HepG2", "assay": "Antiproliferative activity against human HepG2 cells assessed as cell viability at 10 uM incubated for 48 hrs by MTT assay", "type": "functional", "conditions": "read-out: Activity"}, "[2]": {"assay": "Selectivity index, ratio of IC50 for human L02 cells to IC50 for human HepG2 cells by MTT assay", "type": "toxicity", "conditions": "L02 cells versus HepG2 cells, read-out: Ratio IC50"}, "[3]": {"assay": "Selectivity index, ratio of IC50 for human L02 cells to IC50 for human Huh-7 cells by MTT assay", "type": "toxicity", "conditions": "L02 cells versus Huh-7 cells, read-out: Ratio IC50"}, "[4]": {"assay": "Selectivity index, ratio of IC50 for human L02 cells to IC50 for human SMMC-7721 cells by MTT assay", "type": "toxicity", "conditions": "L02 cells versus SMMC-7721 cells, read-out: Ratio IC50"}, "[5]": {"assay": "Selectivity index, ratio of IC50 for human L02 cells to IC50 for human HeLa cells by MTT assay", "type": "toxicity", "conditions": "L02 cells versus HeLa cells, read-out: Ratio IC50"}, "[6]": {"target": "T1, Nuclear receptor subfamily 4immunitygroup A member 1 (Homo sapiens, UniProt P22736)", "T1 sequence (P22736 whole entry, the tested form may be a part)": "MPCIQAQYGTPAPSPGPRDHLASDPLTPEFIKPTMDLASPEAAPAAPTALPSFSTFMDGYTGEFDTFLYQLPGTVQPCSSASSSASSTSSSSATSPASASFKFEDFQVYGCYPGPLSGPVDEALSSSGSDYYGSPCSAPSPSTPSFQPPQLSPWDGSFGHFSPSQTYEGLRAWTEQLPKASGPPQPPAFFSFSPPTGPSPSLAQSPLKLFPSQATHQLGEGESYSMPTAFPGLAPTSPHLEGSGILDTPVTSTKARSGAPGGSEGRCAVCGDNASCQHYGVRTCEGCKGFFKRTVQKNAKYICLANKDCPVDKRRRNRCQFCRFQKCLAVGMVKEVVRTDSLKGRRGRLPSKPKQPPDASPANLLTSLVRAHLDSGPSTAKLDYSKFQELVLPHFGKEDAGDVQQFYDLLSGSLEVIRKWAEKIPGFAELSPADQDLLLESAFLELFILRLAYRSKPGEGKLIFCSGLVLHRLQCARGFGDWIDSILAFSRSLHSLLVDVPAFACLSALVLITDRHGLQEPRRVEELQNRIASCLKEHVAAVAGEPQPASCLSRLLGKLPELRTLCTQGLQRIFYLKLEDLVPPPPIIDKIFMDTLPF", "assay": "Binding affinity to Nur77 ligand binding domain (unknown origin) by surface plasmon resonance analysis"}, "[7]": {"target": "T1, Nuclear receptor subfamily 4immunitygroup A member 1", "assay": "Binding affinity to Nur77 ligand binding domain (unknown origin) by fluorescence quenching assay"}, "[8]": {"target": "T1, Nuclear receptor subfamily 4immunitygroup A member 1", "assay": "Binding affinity to pBind-Nur77-LBD (unknown origin) transfected in HEK293T cells co-transfected with pG5-Luc assessed as inhibition of Nur77 transcriptional activity by measuring inhibition of Nur77-driven luciferase activity incubated for 12 hrs by luciferase reporter gene assay", "type": "cell-based", "conditions": "filed as modulator, dose 1.25-5 µM"}, "[9]": {"tested_on": "HepG2", "assay": "Induction of apoptosis in human HepG2 cells transfected with Nur77 siRNA assessed as induction of PARP cleavage at 10 to 15 uM incubated for 12 hrs by western blot analysis", "type": "functional, cell-based", "conditions": "dose 10-15 µM"}, "[10]": {"tested_on": "HepG2", "assay": "Induction of apoptosis in human HepG2 cells assessed as viable cells at 10 uM incubated for 12 hrs by AnnexinV-FITC/PI staining based flow cytometry (reference value: 96.32%)", "type": "functional", "conditions": "read-out: Activity"}, "[11]": {"tested_on": "HepG2", "assay": "Induction of apoptosis in human HepG2 cells assessed as early apoptotic cells at 10 uM incubated for 12 hrs by AnnexinV-FITC/PI staining based flow cytometry (reference value: 0.83%)", "type": "functional"}, "[12]": {"tested_on": "HepG2", "assay": "Induction of apoptosis in human HepG2 cells assessed as late apoptotic cells at 10 uM incubated for 12 hrs by AnnexinV-FITC/PI staining based flow cytometry (reference value: 1.91%)", "type": "functional"}, "[13]": {"tested_on": "HepG2", "assay": "Induction of apoptosis in human HepG2 cells assessed as necrotic cells at 10 uM incubated for 12 hrs by AnnexinV-FITC/PI staining based flow cytometry (reference value: 0.92%)", "type": "functional"}, "[14]": {"tested_on": "HepG2", "assay": "Induction of apoptosis in human HepG2 cells transfected with Nur77 siRNA assessed as viable cells at 10 uM incubated for 12 hrs by AnnexinV-FITC/PI staining based flow cytometry (reference value: 96.34%)", "type": "functional", "conditions": "read-out: Activity"}, "[15]": {"tested_on": "HepG2", "assay": "Induction of apoptosis in human HepG2 cells transfected with Nur77 siRNA assessed as late apoptotic cells at 10 uM incubated for 12 hrs by AnnexinV-FITC/PI staining based flow cytometry (reference value: 1.98%)", "type": "functional"}, "[16]": {"tested_on": "HepG2", "assay": "Induction of apoptosis in human HepG2 cells assessed as mitochondrial membrane potential loss by measuring proportion of cells with depolarized MMP at 10 uM incubated for 12 hrs by JC-1 staining based flow cytometry (reference value: 5.81%)", "type": "functional"}, "[17]": {"target": "T1, Nuclear receptor subfamily 4immunitygroup A member 1", "assay": "Modulation of Myc-Nur77 (unknown origin) transfected in HEK293T cells assessed as induction of Nur77 translocation from nucleus to cytoplasm at 10 uM incubated for 2 to 4 hrs by western blot analysis", "type": "cell-based", "conditions": "filed as modulator, time 2-4 hrs"}, "[18]": {"target": "T1, Nuclear receptor subfamily 4immunitygroup A member 1", "assay": "Modulation of GFP-Nur77 (unknown origin) transfected in human HepG2 cells assessed as induction of Nur77 translocation from nucleus to mitochondria at 10 uM incubated for 3 hrs by confocal microscopy", "conditions": "filed as modulator"}, "[19]": {"target": "T1, Nuclear receptor subfamily 4immunitygroup A member 1", "assay": "Modulation of Myc-Nur77-LBD (unknown origin) transfected in human HepG2 cells assessed as induction of Nur77 translocation from nucleus to mitochondria at 10 uM incubated for 3 hrs by confocal microscopy", "conditions": "filed as modulator"}, "[20]": {"tested_on": "HepG2", "assay": "Antitumor activity against human HepG2 cells xenografted in BALB/c nude mouse assessed as inhibition of tumor growth at 50 mg/kg, ip administered once every day for 14 days", "type": "functional", "conditions": "HepG2, 336 h, time 14 day, read-out: TGI"}, "[21]": {"tested_on": "HepG2", "assay": "Antitumor activity against human HepG2 cells xenografted in BALB/c nude mouse assessed as inhibition of tumor weight at 50 mg/kg, ip administered once every day for 14 days", "type": "functional, organism-based", "conditions": "time 14.0 day"}, "[22]": {"assay": "Toxicity in BALB/c nude mouse xenografted with human HepG2 cells assessed as body weight loss at 50 mg/kg, ip administered once every day for 14 days", "type": "organism-based", "conditions": "in vivo, 336 h, time 14 day"}, "[23]": {"tested_on": "HepG2", "assay": "Antitumor activity against human HepG2 cells xenografted in BALB/c nude mouse assessed as induction of nuclear shrinkage in tumor tissues at 50 mg/kg, ip administered once every day for 14 days by H and E staining based analysis", "type": "functional, organism-based", "conditions": "time 14.0 day"}, "[24]": {"assay": "Toxicity in BALB/c nude mouse xenografted with human HepG2 cells assessed as effect on heart damage at 50 mg/kg ip administered once every day for 14 days by H and E staining based analysis", "type": "organism-based", "conditions": "in vivo, 336 h, time 14 day"}, "[25]": {"assay": "Toxicity in BALB/c nude mouse xenografted with human HepG2 cells assessed as effect on liver damage at 50 mg/kg ip administered once every day for 14 days by H and E staining based analysis", "type": "organism-based", "conditions": "in vivo, 336 h, time 14 day"}, "[26]": {"assay": "Toxicity in BALB/c nude mouse xenografted with human HepG2 cells assessed as effect on lung damage at 50 mg/kg ip administered once every day for 14 days by H and E staining based analysis", "type": "organism-based", "conditions": "in vivo, 336 h, time 14 day"}, "[27]": {"assay": "Toxicity in BALB/c nude mouse xenografted with human HepG2 cells assessed as effect on kidney damage at 50 mg/kg ip administered once every day for 14 days by H and E staining based analysis", "type": "organism-based", "conditions": "in vivo, 336 h, time 14 day"}}, "note": "Active and inactive are the calls of the source. No cut-off for these calls is given here."}
{"compound": "CN(C)CCCNC(=O)c1cc2cc(Nc3nccc(-c4cccnc4)n3)ccc2[nH]1", "values": [{"measurement": "viability at 10 µM", "setting": "[1]", "result": 43.7, "unit": "%"}, {"measurement": "selectivity ratio", "setting": "[2]", "result": 1.24}, {"measurement": "selectivity ratio", "setting": "[3]", "result": 3.14}, {"measurement": "selectivity ratio", "setting": "[4]", "result": 1.9}, {"measurement": "selectivity ratio", "setting": "[5]", "result": 3}, {"measurement": "Kd", "setting": "[6]", "result": 354, "unit": "nM"}, {"measurement": "Activity", "setting": "[6]; filed as modulator", "result": "Dose-Dependent Effect"}, {"measurement": "Kd", "setting": "[7]", "result": 121, "unit": "nM"}, {"measurement": "Activity", "setting": "[8]", "result": "Dose-Dependent Effect"}, {"measurement": "Activity", "setting": "[9]", "result": "inactive"}, {"measurement": "viability at 10 µM", "setting": "[10]", "result": 72.7, "unit": "%"}, {"measurement": "Activity", "setting": "[11]", "result": 16.5, "unit": "%"}, {"measurement": "Activity", "setting": "[12]", "result": 8.01, "unit": "%"}, {"measurement": "Activity", "setting": "[13]", "result": 2.83, "unit": "%"}, {"measurement": "viability at 10 µM", "setting": "[14]", "result": 95.1, "unit": "%"}, {"measurement": "Activity", "setting": "[15]", "result": 2.28, "unit": "%"}, {"measurement": "Activity", "setting": "[16]", "result": 21.34, "unit": "%"}, {"measurement": "Activity", "setting": "[17]", "result": "Active"}, {"measurement": "Activity", "setting": "[18]", "result": "Active"}, {"measurement": "Activity", "setting": "[19]", "result": "Active"}, {"measurement": "inhibition in vivo at 50 mg/kg", "setting": "[20]", "result": 71.8, "unit": "%"}, {"measurement": "Activity", "setting": "[21]", "result": "Active"}, {"measurement": "Activity", "setting": "[22]", "result": "Non-Toxic"}, {"measurement": "Activity", "setting": "[23]", "result": "Active"}, {"measurement": "Activity", "setting": "[24]", "result": "Non-Toxic"}, {"measurement": "Activity", "setting": "[25]", "result": "Non-Toxic"}, {"measurement": "Activity", "setting": "[26]", "result": "Non-Toxic"}, {"measurement": "Activity", "setting": "[27]", "result": "Non-Toxic"}]}
